Values quoted from earlier work, collected in article PMC7377474, “Preclinical characterization of CPL302-253, a selective inhibitor of PI3Kδ, as the candidate for the inhalatory treatment and prevention of Asthma” (PLoS ONE, 2020).

Target: T1, hERG (Homo sapiens, UniProt Q12809)
T1 construct: purchased DiscoverX (Eurofins) SafetyScan44
Settings: available preclinical data; cited from earlier work

T1 sequence (Q12809 whole entry): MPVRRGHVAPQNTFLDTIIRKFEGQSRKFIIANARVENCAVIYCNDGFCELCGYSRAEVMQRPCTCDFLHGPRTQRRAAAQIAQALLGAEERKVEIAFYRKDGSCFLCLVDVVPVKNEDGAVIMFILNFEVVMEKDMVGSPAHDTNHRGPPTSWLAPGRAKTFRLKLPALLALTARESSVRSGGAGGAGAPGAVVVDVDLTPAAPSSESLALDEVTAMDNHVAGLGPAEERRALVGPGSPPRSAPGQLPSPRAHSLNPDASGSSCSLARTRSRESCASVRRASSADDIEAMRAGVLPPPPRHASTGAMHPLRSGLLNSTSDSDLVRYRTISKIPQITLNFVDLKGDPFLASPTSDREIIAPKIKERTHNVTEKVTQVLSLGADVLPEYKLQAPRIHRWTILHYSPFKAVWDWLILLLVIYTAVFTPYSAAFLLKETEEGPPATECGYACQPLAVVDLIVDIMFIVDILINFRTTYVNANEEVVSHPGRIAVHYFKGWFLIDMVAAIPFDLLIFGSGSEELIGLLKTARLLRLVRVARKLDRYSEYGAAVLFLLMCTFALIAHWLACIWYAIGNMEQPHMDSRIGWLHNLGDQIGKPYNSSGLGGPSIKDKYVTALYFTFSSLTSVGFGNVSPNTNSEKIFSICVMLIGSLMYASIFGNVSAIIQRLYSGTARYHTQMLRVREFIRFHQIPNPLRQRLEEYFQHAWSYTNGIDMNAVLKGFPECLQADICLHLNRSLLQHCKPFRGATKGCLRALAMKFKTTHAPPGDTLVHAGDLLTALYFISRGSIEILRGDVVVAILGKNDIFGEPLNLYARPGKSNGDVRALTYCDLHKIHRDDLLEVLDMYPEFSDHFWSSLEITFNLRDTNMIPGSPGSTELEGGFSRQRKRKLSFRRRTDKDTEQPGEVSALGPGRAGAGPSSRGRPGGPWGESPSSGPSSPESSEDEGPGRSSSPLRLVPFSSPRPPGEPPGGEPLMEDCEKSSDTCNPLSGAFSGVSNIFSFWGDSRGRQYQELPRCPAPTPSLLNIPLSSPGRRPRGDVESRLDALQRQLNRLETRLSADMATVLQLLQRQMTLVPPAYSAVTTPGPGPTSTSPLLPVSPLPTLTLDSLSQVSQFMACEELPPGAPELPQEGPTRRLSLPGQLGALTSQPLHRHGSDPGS

CC(C)N1CCN(Cc2cnc(-c3cc(-c4cccc5[nH]ccc45)cc4[nH]ncc34)o2)CC1 [Nemiralisib]
activity towards hERG: has activity towards hERG
